From ChEMBL document CHEMBL5576074, “[1,2,4]Triazolo[1,5-a]pyrimidine derivatives: Structure-activity relationship study leading to highly selective ENPP1 inhibitors” (Bioorg Med Chem Lett, 2024)

How the values were obtained:
[1] = target: T1, Ectonucleotide pyrophosphatase/phosphodiesterase family member 3 (Homo sapiens, UniProt O14638); assay: Inhibition of ENPP3 (unknown origin)
T1 sequence (O14638 whole entry): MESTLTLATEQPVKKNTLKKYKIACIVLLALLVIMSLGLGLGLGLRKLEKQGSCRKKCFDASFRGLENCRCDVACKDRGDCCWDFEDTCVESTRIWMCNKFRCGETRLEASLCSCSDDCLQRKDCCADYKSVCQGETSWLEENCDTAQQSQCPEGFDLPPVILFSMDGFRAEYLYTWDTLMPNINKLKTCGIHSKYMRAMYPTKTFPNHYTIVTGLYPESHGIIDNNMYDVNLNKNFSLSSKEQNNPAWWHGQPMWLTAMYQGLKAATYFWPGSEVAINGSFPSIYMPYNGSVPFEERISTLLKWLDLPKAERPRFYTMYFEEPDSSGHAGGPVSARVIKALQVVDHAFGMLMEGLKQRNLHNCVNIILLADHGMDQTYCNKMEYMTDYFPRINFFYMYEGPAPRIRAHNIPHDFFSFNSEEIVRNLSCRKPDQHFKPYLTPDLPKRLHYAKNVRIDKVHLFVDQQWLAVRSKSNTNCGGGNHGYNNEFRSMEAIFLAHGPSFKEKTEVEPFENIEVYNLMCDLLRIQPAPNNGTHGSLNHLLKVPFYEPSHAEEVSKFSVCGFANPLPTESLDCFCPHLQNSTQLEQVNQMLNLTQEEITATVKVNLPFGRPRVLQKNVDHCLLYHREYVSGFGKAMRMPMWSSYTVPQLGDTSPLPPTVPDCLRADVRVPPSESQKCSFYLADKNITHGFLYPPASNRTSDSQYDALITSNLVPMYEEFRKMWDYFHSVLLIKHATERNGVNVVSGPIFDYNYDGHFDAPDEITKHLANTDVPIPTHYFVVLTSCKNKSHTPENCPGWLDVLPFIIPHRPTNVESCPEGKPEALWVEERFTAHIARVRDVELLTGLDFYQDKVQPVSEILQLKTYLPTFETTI

[2] = target: T2, Glycerophosphocholine cholinephosphodiesterase ENPP6 (Homo sapiens, UniProt Q6UWR7); assay: Inhibition of ENPP6 (unknown origin)
T2 sequence (Q6UWR7 whole entry): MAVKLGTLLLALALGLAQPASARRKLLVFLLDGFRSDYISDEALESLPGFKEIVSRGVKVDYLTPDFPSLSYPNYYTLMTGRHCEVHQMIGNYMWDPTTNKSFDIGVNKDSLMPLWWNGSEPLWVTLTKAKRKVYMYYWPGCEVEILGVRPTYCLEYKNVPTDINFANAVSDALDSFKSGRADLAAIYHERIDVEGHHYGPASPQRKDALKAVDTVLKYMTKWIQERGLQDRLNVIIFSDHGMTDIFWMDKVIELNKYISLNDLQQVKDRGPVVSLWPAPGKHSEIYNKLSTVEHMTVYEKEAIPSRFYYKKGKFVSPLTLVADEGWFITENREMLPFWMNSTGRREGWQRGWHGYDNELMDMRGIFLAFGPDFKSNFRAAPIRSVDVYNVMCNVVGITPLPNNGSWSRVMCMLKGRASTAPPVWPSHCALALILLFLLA

[3] = target: T3, Glycerophosphocholine cholinephosphodiesterase ENPP6 (Homo sapiens) (UniProt Q6UWR7); assay: Inhibition of ENPP6 (unknown origin) at 50 uM relative to control
T3 sequence (whole entry): T2 sequence (Q6UWR7 whole entry)

Autotaxin [4] = target: T4, Autotaxin (Homo sapiens, UniProt Q13822); assay: Inhibition of ENPP2 (unknown origin)
[5] = target: T5, Ectonucleotide pyrophosphatase/phosphodiesterase family member 1 (Homo sapiens, UniProt P22413); assay: Inhibition of ENPP1 (unknown origin)
T5 sequence (P22413 whole entry): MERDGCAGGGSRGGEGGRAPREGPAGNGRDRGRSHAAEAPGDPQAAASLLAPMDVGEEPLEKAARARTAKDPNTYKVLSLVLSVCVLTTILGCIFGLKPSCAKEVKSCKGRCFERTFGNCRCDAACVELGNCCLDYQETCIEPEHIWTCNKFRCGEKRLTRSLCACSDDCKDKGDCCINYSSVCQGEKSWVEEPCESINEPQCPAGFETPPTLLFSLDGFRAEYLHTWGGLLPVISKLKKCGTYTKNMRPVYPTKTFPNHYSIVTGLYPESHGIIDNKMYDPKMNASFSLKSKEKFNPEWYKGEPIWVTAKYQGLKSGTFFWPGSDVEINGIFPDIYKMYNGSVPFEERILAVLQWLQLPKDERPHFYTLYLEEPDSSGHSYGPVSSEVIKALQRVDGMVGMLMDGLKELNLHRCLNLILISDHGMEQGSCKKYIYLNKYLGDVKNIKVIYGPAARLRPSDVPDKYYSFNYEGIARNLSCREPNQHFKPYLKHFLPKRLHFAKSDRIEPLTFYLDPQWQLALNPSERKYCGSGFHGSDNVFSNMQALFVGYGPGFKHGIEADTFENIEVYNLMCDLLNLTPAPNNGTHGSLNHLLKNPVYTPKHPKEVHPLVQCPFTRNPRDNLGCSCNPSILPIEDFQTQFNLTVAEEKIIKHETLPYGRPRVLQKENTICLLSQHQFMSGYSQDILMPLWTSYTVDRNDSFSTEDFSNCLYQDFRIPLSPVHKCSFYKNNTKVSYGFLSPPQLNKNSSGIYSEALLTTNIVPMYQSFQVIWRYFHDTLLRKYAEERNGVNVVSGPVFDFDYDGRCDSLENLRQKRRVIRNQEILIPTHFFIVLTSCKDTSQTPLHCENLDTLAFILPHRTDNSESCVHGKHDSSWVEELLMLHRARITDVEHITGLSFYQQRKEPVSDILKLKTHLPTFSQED

[6] = target: T6, Ectonucleotide pyrophosphatase/phosphodiesterase family member 3 (Homo sapiens) (UniProt O14638); assay: Inhibition of ENPP3 (unknown origin) at 50 uM relative to control
T6 sequence (whole entry): T1 sequence (O14638 whole entry)

Autotaxin [7] = target: T4, Autotaxin; assay: Inhibition of ENPP2 (unknown origin) at 50 uM relative to control

Row | IC50 [1] | IC50 [2] | inhibition [3] | IC50 (Autotaxin [4]) | IC50 [5] | inhibition [6] | inhibition (Autotaxin [7]) | Compound
1 | > 50 µM | > 50 µM | < 1% | > 50 µM | 21 µM | 5.9% | 6.1% | Cc1nc2ncnn2c(N(C)C)c1Cc1cccc(-c2ccccc2)c1
2 | > 50 µM | > 50 µM | < 1% | > 50 µM | > 30 µM | < 1% | < 1% | Cc1nc2nc(SCC(=O)O)nn2c(N(C)C)c1Cc1ccccc1
3 | > 50 µM | > 50 µM | < 1% | > 50 µM | > 30 µM | < 1% | < 1% | Cc1nc2ncnn2c(N(C)Cc2ccccc2)c1Cc1cccc(N)c1
4 | > 50 µM | > 50 µM | 1.3% | > 50 µM | 1.1 µM | 8.7% | 19% | Cc1nc2ncnn2c(N(C)C)c1Cc1cccc(Cl)c1
5 | > 50 µM | > 50 µM | < 1% | > 50 µM | > 30 µM | 3.7% | < 1% | Cc1nc2ncnn2c(N(C)C)c1CC1CCCCC1
6 | > 50 µM | > 50 µM | < 1% | > 50 µM | > 30 µM | 2.4% | < 1% | Cc1nc2ncnn2c(O)c1Cc1ccccc1
7 | > 50 µM | > 50 µM | 3.5% | > 50 µM | 3.6 µM | 22% | 27% | Cc1nc2ncnn2c(NCCCCC(=O)O)c1Cc1cccc(N)c1
8 | > 50 µM | > 50 µM | < 1% | > 50 µM | 1.3 µM | 4.6% | 6.8% | COc1ccc(Cc2c(C)nc3ncnn3c2N(C)C)cc1OC
9 | > 50 µM | > 50 µM | < 1% | > 50 µM | 28 µM | 10% | < 1% | Cc1cc(N(C)C)n2ncnc2n1
10 | > 50 µM | > 50 µM | < 1% | > 50 µM | > 30 µM | 10% | < 1% | CNc1c(Cc2ccccc2)c(C)nc2ncnn12
11 | > 50 µM | > 50 µM | < 1% | > 50 µM | 2.3 µM | 3% | < 1% | CC(=O)Nc1cccc(Cc2c(C)nc3ncnn3c2N(C)C)c1
12 | > 50 µM | > 50 µM | < 1% | > 50 µM | > 30 µM | 3.3% | < 1% | COCCNc1c(Cc2ccccc2)c(C)nc2ncnn12
13 | > 50 µM | > 50 µM | 3.7% | > 50 µM | 11 µM | 11% | 22% | Cc1nc2ncnn2c(NCCCC(=O)O)c1Cc1cccc(N)c1
14 | > 50 µM | > 50 µM | < 1% | > 50 µM | 23 µM | 3.6% | < 1% | Cc1nc2ncnn2c(N(C)C)c1CCc1ccccc1
15 | > 50 µM | > 50 µM | < 1% | > 50 µM | > 30 µM | 21% | < 1% | Cc1nc2ncnn2c2c1Cc1ccccc1N2
16 | > 50 µM | > 50 µM | < 1% | > 50 µM | 21 µM | 2.7% | < 1% | Cc1nc2ncnn2c(N(C)C)c1Cc1ccc([N+](=O)[O-])cc1
17 | > 50 µM | > 50 µM | < 1% | > 50 µM | 9 µM | 11% | < 1% | Cc1nc2ncnn2c(NCc2ccccc2)c1Cc1cccc(N)c1
18 | > 50 µM | > 50 µM | < 1% | > 50 µM | 3.1 µM | 6.8% | 4.7% | Cc1nc2ncnn2c(N(C)C)c1Cc1ccccc1[N+](=O)[O-]
19 | > 50 µM | > 50 µM | 2.1% | > 50 µM | > 30 µM | 5.1% | < 1% | Cc1cc(O)n2ncnc2n1
20 | > 50 µM | > 50 µM | < 1% | > 50 µM | > 30 µM | < 1% | 5.5% | CCCN(CCC)c1c(Cc2ccccc2)c(C)nc2ncnn12
21 | > 50 µM | > 50 µM | 2% | > 50 µM | 5.7 µM | 1.5% | 4.9% | Cc1nc2ncnn2c(N(C)C)c1Cc1ccc(Cl)cc1
22 | > 50 µM | > 50 µM | < 1% | > 50 µM | 1.6 µM | 6.5% | 31% | COc1cccc(Cc2c(C)nc3ncnn3c2N(C)C)c1
23 | > 50 µM | > 50 µM | < 1% | > 50 µM | 3.6 µM | 4.3% | 11% | Cc1nc2ncnn2c(N(C)C)c1Cc1cccc([N+](=O)[O-])c1
24 | > 50 µM | > 50 µM | 1.1% | > 50 µM | 3.1 µM | 4.9% | 9.7% | Cc1cccc(Cc2c(C)nc3ncnn3c2N(C)C)c1
25 | > 50 µM | > 50 µM | < 1% | > 50 µM | > 30 µM | < 1% | 1.9% | CCN(CC)c1c(Cc2ccccc2)c(C)nc2ncnn12
26 | > 50 µM | > 50 µM | < 1% | > 50 µM | > 30 µM | 24% | 1.4% | C#CCNc1c(Cc2ccccc2)c(C)nc2ncnn12
27 | > 50 µM | > 50 µM | < 1% | > 50 µM | 0.47 µM | 12% | 7.7% | Cc1nc2ncnn2c(N(C)C)c1Cc1ccc(N)cc1
